Patent publication US7816408B2, “Calcium receptor active compounds” (NPS Pharmaceuticals, Inc., priority 2002, dated 2010)

How the values were obtained:
human calcium receptor = biological target: T1, human calcium receptor (Homo sapiens, UniProt P41180); assay: Activity on calcium receptors: fluo-3 fluorescence in HEK293 cells transfected with human calcium receptor gene; assay type: cell-based; settings: HEK293 cells transfected with plasmid pHuPCaR4.0 (human calcium receptor gene), loaded with fluo-3; 1 mM CaCl2, 1 mM MgCl2
T1 construct: expressed in transfected cells; host or cells: HEK293
T1 sequence (P41180 20-1078): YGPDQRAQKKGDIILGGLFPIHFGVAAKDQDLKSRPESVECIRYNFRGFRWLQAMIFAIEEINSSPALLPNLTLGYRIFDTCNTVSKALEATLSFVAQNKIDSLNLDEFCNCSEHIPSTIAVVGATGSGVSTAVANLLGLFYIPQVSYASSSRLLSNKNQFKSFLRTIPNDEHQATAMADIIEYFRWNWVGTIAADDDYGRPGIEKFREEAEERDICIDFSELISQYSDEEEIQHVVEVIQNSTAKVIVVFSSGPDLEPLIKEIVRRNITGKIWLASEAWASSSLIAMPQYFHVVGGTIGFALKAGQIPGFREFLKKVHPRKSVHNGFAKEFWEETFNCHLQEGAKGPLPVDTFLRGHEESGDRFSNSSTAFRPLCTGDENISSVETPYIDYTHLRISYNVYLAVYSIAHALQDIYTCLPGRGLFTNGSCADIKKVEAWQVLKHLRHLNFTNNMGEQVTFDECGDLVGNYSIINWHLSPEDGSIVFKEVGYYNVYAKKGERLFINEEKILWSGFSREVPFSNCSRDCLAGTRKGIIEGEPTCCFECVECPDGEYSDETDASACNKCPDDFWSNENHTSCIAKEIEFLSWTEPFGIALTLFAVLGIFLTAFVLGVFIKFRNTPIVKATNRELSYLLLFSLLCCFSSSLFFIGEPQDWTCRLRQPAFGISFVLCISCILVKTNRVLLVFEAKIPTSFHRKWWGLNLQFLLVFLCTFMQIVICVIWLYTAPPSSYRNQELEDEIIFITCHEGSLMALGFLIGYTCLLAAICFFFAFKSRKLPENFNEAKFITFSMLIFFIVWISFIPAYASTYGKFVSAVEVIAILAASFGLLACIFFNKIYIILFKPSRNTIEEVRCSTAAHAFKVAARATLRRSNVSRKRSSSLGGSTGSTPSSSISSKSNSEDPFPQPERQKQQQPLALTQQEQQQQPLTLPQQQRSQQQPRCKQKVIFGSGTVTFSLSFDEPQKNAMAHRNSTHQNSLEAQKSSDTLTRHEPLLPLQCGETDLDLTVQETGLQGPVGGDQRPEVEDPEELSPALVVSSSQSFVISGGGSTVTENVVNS
In short: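 HEK293 cells transfected with human calcium receptor plasmid, loaded 1 h at 37 °C with about 5 μM fluo-3/AM. Cells then rinsed into HEPES-buffered HBSS with 1 mM CaCl2 and 1 mM MgCl2. Fluorescence read at 485/540 nm after compound addition.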

normal male SD rats = assay: Plasma Ca^2+ level of rats after single oral administration; assay type: in vivo; settings: rat, mean of six animals; for Plasma Ca^2+ (mmol/l) 1 hr: 1 hr after single oral dose 30 μmol/kg; for Plasma Ca^2+ (mmol/l) 1 hr / Plasma Ca^2+ (mmol/l) 2 hr / Plasma Ca^2+ (mmol/l) 4 hr / Plasma Ca^2+ (mmol/l) 8 hr / Plasma Ca^2+ (mmol/l) 24 hr / Plasma Ca^2+ (mmol/l) 0 hr: vehicle 10% cyclodextrin (** 1% sodium-CMC); for Plasma Ca^2+ (mmol/l) 2 hr: 2 hr after single oral dose 30 μmol/kg; for Plasma Ca^2+ (mmol/l) 4 hr: 4 hr after single oral dose 30 μmol/kg; for Plasma Ca^2+ (mmol/l) 8 hr: 8 hr after single oral dose 30 μmol/kg; for Plasma Ca^2+ (mmol/l) 28 hr (footnote *d, 24 hr column): 28 hr after single oral dose 30 μmol/kg; for Plasma Ca^2+ (mmol/l) 24 hr: 24 hr after single oral dose 30 μmol/kg; for Plasma Ca^2+ (mmol/l) 0 hr: 0 hr = before oral administration of 30 μmol/kg
Method: The compound of the present invention was administered to rats so as to examine the effects of the compound on the plasma calcium ion level and serum PTH level. The test was performed by orally administering single dose of the compound of the invention or a control compound to normal male SD rats with six animals in each group.
To the group 1 was administered as a control a 10% cyclodextrin aqueous solution in a dose of 2.5 ml/kg. To the group 2 was administered as a reference (R)-N-(3-(2-chlorophenyl)propyl)-1-(3-methoxyphenyl)ethylamine (KRN568) dissolved in a 10% cyclodextrin aqueous solution in a dose of 30 μmol/kg. To the group 3 was administered the compound of the present invention dissolved in a 10% cyclodextrin aqueous solution in a dose of 30 μmol/kg, provided that 1% sodium-CMC aqueous solution was used in place of 10% cyclodextrin aqueous solution for the compounds marked with ** in Table 2.
Blood of each rat was collected from the tail tip before the administration and 30 minutes and 1, 2, 4, 8 and 24 hours thereafter (or at the time indicated in Table 2), and the plasma Ca^2+ level and serum PTH level were measured. The data of the serum PTH level were statistically processed by the multiple comparison analysis in accordance with Steel's calibration by using the group 1 as the control.

COc1ccc(CN(Cc2ccc(Cl)c(Cl)c2)C(=O)CCN[C@H](C)c2cccc3ccccc23)cc1 [Compound K-2309, N1-(3,4-dichlorobenzyl)-N1-(4-methoxybenzyl)-3-{[(1R)-1-(1-naphthyl)ethyl]amino}propanamide]
EC50 (human calcium receptor): 66 nM
Plasma Ca^2+ (mmol/l) 1 hr (normal male SD rats): 1.320 mmol/L
Plasma Ca^2+ (mmol/l) 2 hr (normal male SD rats): 1.207 mmol/L
Plasma Ca^2+ (mmol/l) 4 hr (normal male SD rats): 1.018 mmol/L
Plasma Ca^2+ (mmol/l) 8 hr (normal male SD rats): 0.963 mmol/L
Plasma Ca^2+ (mmol/l) 28 hr (footnote *d, 24 hr column) (normal male SD rats; vehicle 10% cyclodextrin): 1.332*^d mmol/l

C[C@@H](NCCCCCSc1ccc(OC(F)(F)F)cc1)c1cccc2ccccc12 [Compound K-2288, N-[(1R)-1-(1-naphthyl)ethyl]-N-(5-{[4-(trifluoromethoxy)phenyl)thio]pentyl)amine]
EC50 (human calcium receptor): 140 nM
Plasma Ca^2+ (mmol/l) 1 hr (normal male SD rats): 1.190 mmol/L
Plasma Ca^2+ (mmol/l) 2 hr (normal male SD rats): 1.057 mmol/L
Plasma Ca^2+ (mmol/l) 4 hr (normal male SD rats): 0.955 mmol/L
Plasma Ca^2+ (mmol/l) 8 hr (normal male SD rats): 0.905 mmol/L
Plasma Ca^2+ (mmol/l) 24 hr (normal male SD rats): 1.162 mmol/L
Plasma Ca^2+ (mmol/l) 48 hr (normal male SD rats; 48 hr after single oral dose 30 μmol/kg, vehicle 10% cyclodextrin): 1.387 mmol/L

COc1ccc(SCCCCCN[C@H](C)c2cccc3ccccc23)cc1 [Compound K-2280]
EC50 (human calcium receptor): 270 nM
Plasma Ca^2+ (mmol/l) 0 hr (normal male SD rats): 1.443 mmol/L
Plasma Ca^2+ (mmol/l) 1 hr (normal male SD rats): 1.233 mmol/L
Plasma Ca^2+ (mmol/l) 2 hr (normal male SD rats): 1.167 mmol/L
Plasma Ca^2+ (mmol/l) 4 hr (normal male SD rats): 1.077 mmol/L
Plasma Ca^2+ (mmol/l) 8 hr (normal male SD rats): 1.142 mmol/L
Plasma Ca^2+ (mmol/l) 24 hr (normal male SD rats): 1.405 mmol/L

C[C@@H](NCCCSc1ccc(C(F)(F)F)cc1)c1cccc2ccccc12 [Compound K-2240, N-[(1R)-1-(1-naphthyl)ethyl]-N-(3-{[4-(trifluoromethyl)phenyl]thio}propyl)amine]
EC50 (human calcium receptor): 360 nM
Plasma Ca^2+ (mmol/l) 1 hr (normal male SD rats): 1.302 mmol/L
Plasma Ca^2+ (mmol/l) 2 hr (normal male SD rats): 1.272 mmol/L
Plasma Ca^2+ (mmol/l) 4 hr (normal male SD rats): 1.175 mmol/L
Plasma Ca^2+ (mmol/l) 8 hr (normal male SD rats): 1.230 mmol/L

C[C@@H](NCCCCCSc1ccc(Cl)cc1)c1cccc2ccccc12 [Compound K-2027, N-{5-[(4-chlorophenyl)thio]pentyl}-N-[(1R)-1-(1-naphthyl)ethyl]amine]
EC50 (human calcium receptor): 390 nM
Plasma Ca^2+ (mmol/l) 1 hr (normal male SD rats): 1.197 mmol/L
Plasma Ca^2+ (mmol/l) 2 hr (normal male SD rats): 1.102 mmol/L
Plasma Ca^2+ (mmol/l) 4 hr (normal male SD rats): 0.995 mmol/L
Plasma Ca^2+ (mmol/l) 8 hr (normal male SD rats): 1.048 mmol/L
Plasma Ca^2+ (mmol/l) 24 hr (normal male SD rats): 1.363 mmol/L

Cc1ccc(CN(Cc2ccc(OC(F)(F)F)cc2)C(=O)CCN[C@H](C)c2cccc3ccccc23)cc1 [Compound K-2310, N1-(4-methylbenzyl)-N1-[4-(trifluoromethoxy)benzyl]-3-{[(1R)-1-(1-naphthyl)ethyl]amino}propanamide]
EC50 (human calcium receptor): 59 nM
Plasma Ca^2+ (mmol/l) 1 hr (normal male SD rats): 1.342 mmol/L
Plasma Ca^2+ (mmol/l) 2 hr (normal male SD rats): 1.188 mmol/L
Plasma Ca^2+ (mmol/l) 4 hr (normal male SD rats): 1.008 mmol/L
Plasma Ca^2+ (mmol/l) 8 hr (normal male SD rats): 0.943 mmol/L
Plasma Ca^2+ (mmol/l) 28 hr (footnote *d, 24 hr column) (normal male SD rats; vehicle 10% cyclodextrin): 1.330*^d mmol/l

C[C@@H](NCCCCCSc1cc(Cl)ccc1Cl)c1cccc2ccccc12 [Compound K-2296, N-{[5-(2,5-dichlorophenyl)thio]pentyl}N-[(1R)-1-(1-naphthyl)ethyl]amine]
EC50 (human calcium receptor): 220 nM
Plasma Ca^2+ (mmol/l) 0 hr (normal male SD rats): 1.410 mmol/L
Plasma Ca^2+ (mmol/l) 1 hr (normal male SD rats): 1.340 mmol/L
Plasma Ca^2+ (mmol/l) 2 hr (normal male SD rats): 1.195 mmol/L
Plasma Ca^2+ (mmol/l) 4 hr (normal male SD rats): 1.113 mmol/L
Plasma Ca^2+ (mmol/l) 8 hr (normal male SD rats): 1.083 mmol/L

C[C@@H](NCCC(=O)N(Cc1ccccc1)Cc1ccc(Cl)c(Cl)c1)c1cccc2ccccc12 [Compound K-2250, N1-benzyl-N1-(3,4-dichloro-benzyl)-3-{[(1R)-1-(1-naphthyl)ethyl]amino}propanamide]
EC50 (human calcium receptor): 76 nM
Plasma Ca^2+ (mmol/l) 1 hr (normal male SD rats): 1.327 mmol/L
Plasma Ca^2+ (mmol/l) 2 hr (normal male SD rats): 1.225 mmol/L
Plasma Ca^2+ (mmol/l) 4 hr (normal male SD rats): 1.122 mmol/L
Plasma Ca^2+ (mmol/l) 8 hr (normal male SD rats): 1.203 mmol/L
